Consider 1 molecule from ChEMBL document CHEMBL3046703, “Study of mangiferin-receptor affinity by cell membrane chromatography using rat pancreas” (Med Chem Res, 2012).

As usually defined, the pKd is the negative decadic logarithm of the Kd, by convention in mol/L. Low values mean a large Kd, high ones a small Kd.

What all share (assay type): cell membranes
Experiment [1] in a line: Binding affinity to mangiferin receptor in rat islet cell membrane stationary phase by chromatographic analysis.
For experiment [2], the species on record is Rattus norvegicus. Put plainly: Binding affinity to mangiferin receptor in rat islet cell membrane stationary phase assessed as ligand-membrane complex by infrared spectroscopic analysis.
For experiment [3], the species on record is Rattus norvegicus. Put plainly: Binding affinity to mangiferin receptor in rat islet cell membrane stationary phase assessed as total active binding sites per islet bed by chromatographic analysis.

Structures are written as SMILES. pKd: −log10 of the molar value. Calls of active or inactive are those of the source. The rule behind the calls is not given here.

Turning to `O=c1c2cc(O)c(O)cc2oc2cc(O)c([C@@H]3O[C@H](CO)[C@@H](O)[C@H](O)[C@H]3O)c(O)c12` [MANGIFERIN], the pKd in experiment [1] is 6.40. The outcome in the experiment listed under Rattus norvegicus [2] was Active. For the same molecule, the Activity in the experiment listed under Rattus norvegicus [3] is 22.7 µmol.
